# Laboratory results: patent US9346809B2 (LEO PHARMA A/S, priority 2009, dated 2016)
# Read-outs that look alike come from different tables or passages of the source.
# Experiments:
# Type in all cases: biochemical
# [1] = molecular target: T1, JAK1 (aa 850-1154, catalytic domain, GST-tag) (Homo sapiens, UniProt P23458); assay: JAK kinase assay (HTRF, phosphorylation of TK substrate-biotin), JAK1; details: ATP at Km (7 μM)
# T1 construct: JAK1 (aa 850-1154) and TYK2 (aa 871-1187) are expressed with an N-terminally fused GST-tag; GST (N); purchased Carna Biosciences, Inc; host or cells: baculovirus expression system
# T1 sequence (P23458 850-1154): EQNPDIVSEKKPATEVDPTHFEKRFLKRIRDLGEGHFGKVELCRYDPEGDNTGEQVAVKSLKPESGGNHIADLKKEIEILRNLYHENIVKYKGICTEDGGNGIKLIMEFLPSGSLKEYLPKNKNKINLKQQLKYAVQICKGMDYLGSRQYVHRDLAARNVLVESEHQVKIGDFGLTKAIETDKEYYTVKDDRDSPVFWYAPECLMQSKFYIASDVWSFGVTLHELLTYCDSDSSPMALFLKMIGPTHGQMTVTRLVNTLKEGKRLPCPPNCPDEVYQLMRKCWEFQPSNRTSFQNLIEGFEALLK
# Method in brief: (§1)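 EC50 values come from HTRF detection of phospho-biotin-TK peptide (1 μM) after 20-30 min RT reactions in Hepes pH 7.0 buffer with 0.75% DMSO. ATP was at Km for each enzyme: 7 μM JAK1, 4 μM JAK2, 2 μM JAK3, 13 μM TYK2. SEB (50 nM) was added for JAK1 and TYK2 only.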
# [2] = molecular target: T2, JAK2 (catalytic domain, His-tag) (Homo sapiens, UniProt O60674); assay: JAK kinase assay (HTRF, phosphorylation of TK substrate-biotin), JAK2; details: ATP at Km (4 μM)
# T2 construct: All four purified enzymes contain only the catalytic domain; His (N); purchased Carna Biosciences, Inc; host or cells: baculovirus expression system
# T2 sequence (O60674 849-1124 limits assumed): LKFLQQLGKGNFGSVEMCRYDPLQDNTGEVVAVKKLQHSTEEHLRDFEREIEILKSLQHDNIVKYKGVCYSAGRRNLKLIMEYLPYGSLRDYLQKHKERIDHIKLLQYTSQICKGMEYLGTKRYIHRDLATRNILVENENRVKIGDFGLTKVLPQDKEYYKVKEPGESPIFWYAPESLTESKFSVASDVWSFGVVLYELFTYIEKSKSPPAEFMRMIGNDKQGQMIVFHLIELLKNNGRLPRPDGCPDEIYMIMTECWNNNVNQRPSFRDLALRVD
# Method in brief: as §1
# [3] = molecular target: T3, JAK3 (catalytic domain, His-tag) (Homo sapiens, UniProt P52333); assay: JAK kinase assay (HTRF, phosphorylation of TK substrate-biotin), JAK3; details: ATP at Km (2 μM)
# T3 construct: All four purified enzymes contain only the catalytic domain; His (N); purchased Carna Biosciences, Inc; host or cells: baculovirus expression system
# T3 sequence (P52333 822-1111 limits assumed): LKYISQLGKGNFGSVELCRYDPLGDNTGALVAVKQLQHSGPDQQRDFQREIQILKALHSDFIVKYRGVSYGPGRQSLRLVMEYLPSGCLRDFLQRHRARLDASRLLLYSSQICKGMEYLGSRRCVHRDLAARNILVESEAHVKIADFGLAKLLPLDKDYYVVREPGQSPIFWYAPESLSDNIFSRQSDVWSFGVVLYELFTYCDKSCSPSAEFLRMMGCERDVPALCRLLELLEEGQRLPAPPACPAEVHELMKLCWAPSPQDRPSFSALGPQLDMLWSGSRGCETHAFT
# Method in brief: as §1
# [4] = molecular target: T4, TYK2 (aa 871-1187, catalytic domain, GST-tag) (Homo sapiens, UniProt P29597); assay: JAK kinase assay (HTRF, phosphorylation of TK substrate-biotin), TYK2; details: ATP at Km (13 μM)
# T4 construct: JAK1 (aa 850-1154) and TYK2 (aa 871-1187) are expressed with an N-terminally fused GST-tag; GST (N); purchased Carna Biosciences, Inc; host or cells: baculovirus expression system
# T4 sequence (P29597 871-1187): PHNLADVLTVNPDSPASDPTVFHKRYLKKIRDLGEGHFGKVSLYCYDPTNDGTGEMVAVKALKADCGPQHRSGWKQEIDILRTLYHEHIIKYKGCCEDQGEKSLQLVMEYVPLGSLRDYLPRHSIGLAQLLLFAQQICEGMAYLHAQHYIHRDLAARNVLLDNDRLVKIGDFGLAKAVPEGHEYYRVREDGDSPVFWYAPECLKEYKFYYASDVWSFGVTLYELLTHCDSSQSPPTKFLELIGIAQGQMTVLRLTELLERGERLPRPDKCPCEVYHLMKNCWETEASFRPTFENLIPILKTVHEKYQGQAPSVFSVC
# Method in brief: as §1
# [5] = HTRF assay, read-out: JAK1 kinase inhibitory activity (EC50 indicator)
# [6] = HTRF assay, read-out: JAK2 kinase inhibitory activity (EC50 indicator)
# [7] = HTRF assay, read-out: JAK3 kinase inhibitory activity (EC50 indicator)
# [8] = HTRF assay, read-out: TYK2 kinase inhibitory activity (EC50 indicator)
# [9] = read-out: JAK1 kinase inhibitory activity (EC50 indicator)
# [10] = read-out: JAK2 kinase inhibitory activity (EC50 indicator)
# [11] = read-out: JAK3 kinase inhibitory activity (EC50 indicator)
# [12] = read-out: TYK2 kinase inhibitory activity (EC50 indicator)
Structure (SMILES),"EC50 [1, 5] [nM]","EC50 [2, 6] [nM]","EC50 [3, 7] [nM]","EC50 [4, 8] [nM]","EC50 [1, 9] [nM]","EC50 [2, 10] [nM]","EC50 [3, 11] [nM]","EC50 [4, 12] [nM]",further results
"Cc1cc(S(N)(=O)=O)ccc1C(=O)N1[C@@H]2CC[C@H]1CN(c1ncnc3[nH]ccc13)C2 [Example 391, 3-Methyl-4-[3-(7H-pyrrolo[2,3-d]pyrimidin-4-yl)-3,8-diaza-bicyclo[3.2.1]octane-8-carbonyl]-benzenesulfonamide]",100 to 500,100 to 500,100 to 500,> 500,,,,,
"CC1CN(C(=O)c2cccc(C#N)c2)C2(CC2)CN1c1ncnc2[nH]ccc12 (centres unmarked) [Example 145, 3-[6-Methyl-7-(7H-pyrrolo[2,3-d]pyrimidin-4-yl)-4,7-diaza-spiro[2.5]octane-4-carbonyl]-benzonitrile]",,,,,< 100,< 100,100 to 500,100 to 500,
"Nc1nc(N2CCN(C(=O)Cc3ccc(C(F)(F)F)cc3)C3(CC3)C2)c2cc[nH]c2n1 [Example 309, 1-[7-(2-Amino-7H-pyrrolo[2,3-d]pyrimidin-4-yl)-4,7-diaza-spiro[2.5]oct-4-yl]-2-(4-trifluoromethyl-phenyl)-ethanone]",< 100,< 100,< 100,> 500,,,,,
"O=C(c1cc2cc(F)ccc2[nH]1)N1C2CCC1CN(c1ncnc3[nH]ccc13)C2 [Example 136, (5-Fluoro-1H-indol-2-yl)-[3-(7H-pyrrolo[2,3-d]pyrimidin-4-yl)-3,8-diaza-bicyclo[3.2.1]oct-8-yl]-methanone]",,,,,< 100,< 100,< 100,100 to 500,
"O=C(c1ccc(CO)cc1)N1CCN(c2ncnc3[nH]ccc23)CC12CC2 [Example 155, (4-Hydroxymethyl-phenyl)-[7-(7H-pyrrolo[2,3-d]pyrimidin-4-yl)-4,7-diaza-spiro[2.5]oct-4-yl]-methanone]",,,,,< 100,< 100,100 to 500,100 to 500,
"S=C(COc1ccccc1)N1CCN(c2ncnc3[nH]ccc23)CC12CC2 [Example 448, 2-Phenoxy-1-[7-(7H-pyrrolo[2,3-d]pyrimidin-4-yl)-4,7-diaza-spiro[2.5]oct-4-yl]-ethanethione]",,,,,,,,,"EC50 ([1]; HTRF assay, read-out: JAK1 kinase inhibitory activity (EC50)): < 100 nM; EC50 ([2]; HTRF assay, read-out: JAK2 kinase inhibitory activity (EC50)): < 100 nM; EC50 ([3]; HTRF assay, read-out: JAK3 kinase inhibitory activity (EC50)): < 100 nM; EC50 ([4]; HTRF assay, read-out: TYK2 kinase inhibitory activity (EC50)): 100 to 500 nM"
"O=C(c1ccc(C(F)(F)F)cc1)N1CCN(c2ncnc3[nH]ccc23)CC12CC2 [Example 48, [7-(7H-Pyrrolo[2,3-d]pyrimidin-4-yl)-4,7-diaza-spiro[2.5]oct-4-yl]-(4-trifluoromethylphenyl)methanone]",,,,,< 100,< 100,100 to 500,> 500,
"O=C(c1cc2cc(F)cc(F)c2[nH]1)N1CCN(c2ncnc3[nH]ccc23)CC12CC2 [Example 192, (5,7-Difluoro-1H-indol-2-yl)-[7-(7H-pyrrolo[2,3-d]pyrimidin-4-yl)-4,7-diaza-spiro[2.5]oct-4-yl]-methanone]",,,,,< 100,< 100,< 100,< 100,
"NC(=O)c1ccc(C(=O)N2CCN(c3ncnc4[nH]ccc34)CC23CC3)cc1 [Example 49, 4-[7-(7H-Pyrrolo[2,3-d]pyrimidin-4-yl)-4,7-diazaspiro[2.5]octane-4-carbonyl]benzamide]",,,,,< 100,< 100,100 to 500,> 500,
"N#Cc1ccccc1CC(=O)N1CCN(c2ccnc3[nH]ccc23)CC12CC2 [Example 237, 2-{2-Oxo-2-[7-(1H-pyrrolo[2,3-b]pyridin-4-yl)-4,7-diaza-spiro[2.5]oct-4-yl]-ethyl}-benzonitrile]",> 500,100 to 500,100 to 500,> 500,,,,,
"COCCS(=O)(=O)c1ccc(C(=O)N2CCN(c3ncnc4[nH]ccc34)CC23CC3)cc1 [Example 433, [4-(2-Methoxy-ethanesulfonyl)-phenyl]-[7-(7H-pyrrolo[2,3-d]pyrimidin-4-yl)-4,7-diaza-spiro[2.5]oct-4-yl]-methanone]",< 100,< 100,100 to 500,100 to 500,,,,,
"NS(=O)(=O)c1ccc(C(=O)N2[C@@H]3CC[C@@H]2CN(c2ncnc4[nH]ccc24)C3)cc1 [Example 353, 4-[3-(7H-Pyrrolo[2,3-d]pyrimidin-4-yl)-3,8-diaza-bicyclo[3.2.1]octane-8-carbonyl]-benzenesulfonamide]",< 100,< 100,< 100,< 100,,,,,

# Now from value to compound, other results behind:
"EC50 [1, 5] [nM]","EC50 [2, 6] [nM]","EC50 [3, 7] [nM]","EC50 [4, 8] [nM]","EC50 [1, 9] [nM]","EC50 [2, 10] [nM]","EC50 [3, 11] [nM]","EC50 [4, 12] [nM]",Structure (SMILES),further results
,,,,< 100,< 100,< 100,> 500,"NS(=O)(=O)c1cc(OCC(=O)N2C3CCC2CN(c2ncnc4[nH]ccc24)C3)ccc1Cl [Example 127, 2-Chloro-5-{2-oxo-2-[3-(7H-pyrrolo[2,3-d]pyrimidin-4-yl)-3,8-diaza-bicyclo[3.2.1]oct-8-yl]-ethoxy}-benzenesulfonamide]",
,,,,< 100,< 100,100 to 500,100 to 500,"N#Cc1ccc(C(=O)N2CCN(c3ncnc4[nH]ccc34)CC23CC3)c(F)c1 [Example 92, 3-Fluoro-4-[7-(7H-pyrrolo[2,3-d]pyrimidin-4-yl)-4,7-diaza-spiro[2.5]octane-4-carbonyl]-benzonitrile]",
< 100,< 100,100 to 500,100 to 500,,,,,"N#Cc1ccc(C(=O)C(=O)N2CCN(c3ncnc4[nH]ccc34)CC23CC3)cc1 [Example 381, 4-{2-Oxo-2-[7-(7H-pyrrolo[2,3-d]pyrimidin-4-yl)-4,7-diaza-spiro[2.5]oct-4-yl]-acetyl}-benzonitrile]",
,,,,< 100,< 100,< 100,100 to 500,"O=C(Cc1cccs1)N1CCN(c2ncnc3[nH]ccc23)CC12CC2 [Example 190, 1-[7-(7H-Pyrrolo[2,3-d]pyrimidin-4-yl)-4,7-diaza-spiro[2.5]oct-4-yl]-2-thiophen-2-yl-ethanone]",
,,,,< 100,< 100,< 100,> 500,"NS(=O)(=O)CCCC(=O)N1CCN(c2ncnc3[nH]ccc23)CC12CC2 [Example 143, 4-Oxo-4-[7-(7H-pyrrolo[2,3-d]pyrimidin-4-yl)-4,7-diaza-spiro[2.5]oct-4-yl]-butane-1-sulfonic acid amide]",
,,,,100 to 500,100 to 500,> 500,> 500,"COCCOC(=O)N1[C@@H]2CC[C@H]1CN(c1ncnc3[nH]ccc13)C2 [Example 12, 3-(7H-Pyrrolo[2,3-d]pyrimidin-4-yl)-3,8-diazabicyclo[3.2.1]octane-8-carboxylic acid 2-methoxyethyl ester]",
,,,,100 to 500,100 to 500,> 500,> 500,"CCC(=O)N1[C@@H]2CC[C@H]1CN(c1ncnc3[nH]ccc13)C2 [Example 30, 1-[3-(7H-Pyrrolo[2,3-d]pyrimidin-4-yl)-3,8-diazabicyclo[3.2.1]oct-8-yl]propan-1-one]",
,,,,< 100,< 100,100 to 500,> 500,"CC(C#N)c1cccc(C(=O)N2CCN(c3ncnc4[nH]ccc34)CC23CC3)c1 (centres unmarked) [Example 8, 2-{3-[7-(7H-Pyrrolo[2,3-d]pyrimidin-4-yl)-4,7-diazaspiro[2.5]octane-4-carbonyl]phenyl}propionitrile]",
